According to PMC2254445, “Statistical learning of peptide retention behavior in chromatographic separations: a new kernel-based approach for computational proteomics” (BMC Bioinformatics, 2007):

Test: Peptide retention time in capillary IP-RP-HPLC with ESI-MS detection
Format: physicochemical
Conditions: vds1 (verified peptides, tryptic digest of protein mixture 1), 50 × 0.2 mm monolithic poly-(styrene/divinylbenzene) column, gradient 0–40% acetonitrile in 0.05% (v/v) aqueous trifluoroacetic acid in 60 min, 55°C, 2 μl/min; for observed retention time: in s (unit assumed); for normalized retention time (NRT): retention times scaled linearly so that TCVADESHAGCEK = 0.1 and MPCTEDYLSLILNR = 0.9
Description: The datasets for training and evaluation of the retention time predictor had to fulfill two basic requirements. First, the identity of the studied peptides had to be known with high certainty in order to avoid incorrect sequence annotations for the training dataset, and second, retention times had to be measured with high reproducibility. Altogether, we measured 19 different proteins, which were purchased from Sigma (St. Louis, MO) or Fluka (Buchs, Switzerland). To avoid excessive overlapping of peptides in the chromatographic separations, the proteins were divided into three artificial protein mixtures and subsequently digested using trypsin (Promega, Madison, WI) using published protocols. The protein mixtures contained the following proteins in concentrations between 0.4 – 3.2 pmol/μl:
Mixture 1: β-casein (bovine milk), conalbumin (chicken egg white), myelin basic protein (bovine), hemoglobin (human), leptin (human), creatine phosphokinase (rabbit muscle), α1-acid-glycoprotein (human plasma), albumin (bovine serum). […]
Adding albumin to each protein mixture was performed because in each run, there had to be an identical set of peptides to normalize the retention times. The resulting peptide mixtures were then separated using capillary IP-RP-HPLC and subsequently identified by electrospray ionization mass spectrometry (ESI-MS) as described in detail in [37, 38]. The separations were carried out in a capillary/nano HPLC system (Model Ultimate 3000, Dionex Benelux, Amsterdam, The Netherlands) using a 50 × 0.2 mm monolithic poly-(styrene/divinylbenzene) column (Dionex Benelux) and a gradient of 0–40% acetonitrile in 0.05% (v/v) aqueous trifluoroacetic acid in 60 min at 55°C. The injection volume was 1 μl, and each digest was analyzed in triplicate at a flow rate of 2 μl/min. On-line ESI-MS detection was carried out with a quadrupole ion-trap mass spectrometer (Model esquire HCT, Bruker Daltonics, Bremen, Germany).
Peptides were identified on the basis of their tandem mass spectra (maximum allowed mass deviations: precursor ions: ± 1.3 Da, fragment ions: ± 0.3 Da) using Mascot (version 2.1.03). The database was the Mass Spectrometry Database, MSDB (version 2005-02-27) restricted to chordata (vertebrates and relatives). We allowed one missed cleavage as well as charges 1+, 2+ and 3+. The mass values were monoisotopic. The significance level of the significance threshold score for the peptide hits was 0.05. Since the amino acid sequences of the 19 proteins of our mixtures are known, we could verify the identifications by sequence comparison with the protein sequences. To avoid random verifications, we restricted the peptide length to be equal or greater than six. The whole process led to two datasets for each protein mixture – one which only contained the verified peptides and the other one with all Mascot identifications. In this paper, we call the datasets containing the verified peptide sequences vds and the datasets with all Mascot identifications ds. The vdss are used to train the predictors and the dss are used to access the classification performance of the identification process.
We chose two standard peptides which were identified in all of the runs. One of these peptides, which had the amino acid sequence TCVADESHAGCEK, eluted very early and the other one, which had the amino acid sequence MPCTEDYLSLILNR, eluted very late. We scaled the retention times linearly so that the early eluting peptide got an NRT of 0.1 and the late eluting peptide an NRT of 0.9. All peptides with an NRT below zero or above 1 were removed. The lists of identified peptides of vds1, vds2 and vds3, together with their respective retention times, are available as Additional files 1, 2 and 3 in the supplementary material.

Substance | observed retention time | normalized retention time (NRT)
CCTESLVNR [verified tryptic peptide, vds1] | 360 | 0.2011
CCTKPESER [verified tryptic peptide, vds1] | 47 | 0.05163
CLDGSR [verified tryptic peptide, vds1] | 169 | 0.1101
DDPHACYSTVFDK [verified tryptic peptide, vds1] | 809 | 0.4159
DDPHACYSTVFDKLK [verified tryptic peptide, vds1] | 1174 | 0.5908
DEYELLCLDGSR [verified tryptic peptide, vds1] | 1144 | 0.5761
DKCEPLEK [verified tryptic peptide, vds1] | 129 | 0.09093
DVCKNYQEAK [verified tryptic peptide, vds1] | 119 | 0.08607
ECCDKPLLEK [verified tryptic peptide, vds1] | 459 | 0.2486
ECCHGDLLECADDR [verified tryptic peptide, vds1] | 700 | 0.364
ECNLAEVPTHAVVVRPEK [verified tryptic peptide, vds1] | 1126 | 0.5677
EQLGEFYEALDCLR [verified tryptic peptide, vds1] | 1723 | 0.8534
EQLGEFYEALDCLRIPK [verified tryptic peptide, vds1] | 1949 | 0.9614
ETYGDMADCCEK [verified tryptic peptide, vds1] | 490 | 0.2635
EYEATLEECCAK [verified tryptic peptide, vds1] | 628 | 0.3297
FFSASCVPGATIEQK [verified tryptic peptide, vds1] | 1189 | 0.5977
GACLLPK [verified tryptic peptide, vds1] | 453 | 0.2458
GTFAALSELHCDK [verified tryptic peptide, vds1] | 1028 | 0.5207
GTFAALSELHCDKLHVDPENFK [verified tryptic peptide, vds1] | 1645 | 0.8158
GYTLPPHCSR [verified tryptic peptide, vds1] | 543 | 0.2886
IQWCAVGK [verified tryptic peptide, vds1] | 727 | 0.3767
KSCHTAVGR [verified tryptic peptide, vds1] | 59 | 0.05729

Substance | observed retention time | normalized retention time (NRT)
LCQLCQGSGGIPPEK [verified tryptic peptide, vds1] | 855 | 0.4382
LFTFHADICTLPDTEK [verified tryptic peptide, vds1] | 1608 | 0.7983
LKPDPNTLCDEFK [verified tryptic peptide, vds1] | 1112 | 0.5611
LRCASIQK [verified tryptic peptide, vds1] | 221 | 0.1348
MPCTEDYLSLILNR [late eluting standard peptide identified in all runs; verified tryptic peptide, vds1] | 1821 | –
NAPYSGYSGAFHCLK [verified tryptic peptide, vds1] | 1104 | 0.5571
NECFLSHKDDSPDLPK [verified tryptic peptide, vds1] | 944 | 0.4804
NLQMDDFELLCTDGR [verified tryptic peptide, vds1] | 1581 | 0.7853
NLQMDDFELLCTDGRR [verified tryptic peptide, vds1] | 1522 | 0.7573
RPCFSALTPDETYVPK [verified tryptic peptide, vds1] | 1337 | 0.6687
SHCIAEVEK [verified tryptic peptide, vds1] | 238 | 0.1429
SLHTLFGDELCK [verified tryptic peptide, vds1] | 1196 | 0.6014
TCNPSDILQMCSFLEGK [verified tryptic peptide, vds1] | 1877 | 0.9271
TCVADESHAGCEK [early eluting standard peptide identified in all runs; verified tryptic peptide, vds1] | 148 | –
TGTCNFDEYFSEGCAPGSPPNSR [verified tryptic peptide, vds1] | 1370 | 0.6845
TSCHTGLGR [verified tryptic peptide, vds1] | 76 | 0.06527
VGGHAAEYGAEALER [verified tryptic peptide, vds1] | 643 | 0.3365
WCTISSPEEK [verified tryptic peptide, vds1] | 697 | 0.3623
WSVVSNGDVECTVVDETK [verified tryptic peptide, vds1] | 1250 | 0.6268
YICDNQDTISSK [verified tryptic peptide, vds1] | 404 | 0.2223
YNGVFQECCQAEDK [verified tryptic peptide, vds1] | 775 | 0.3998
